Assay results as given in patent US11472816B2, “Mcl-1 inhibitors and methods of use thereof” (AstraZeneca AB, priority 2016, dated 2022).

How the values were obtained:
[1] = tested on: MV-4-11 tumor; test: In vivo efficacy in MV-4-11 human acute myeloid leukemia subcutaneous tumor model; set-up: species or system C.B-17 SCID female mice
Description: Method: Example 2 was formulated in 30% 2-Hydroxypropyl-beta-cyclodextrin (HPBCD), pH 9 and dosed as a single intravenous (iv) administration in a volume of 5 ml/kg. 10^6 MV-4-11 tumor cells were injected subcutaneously in the right flank of C.B-17 SCID female mice in a volume of 0.1 mL. Tumor volumes (measured by caliper), animal body weight, and tumor conditions were recorded twice weekly for the duration of the study. Tumor volumes (measured by caliper) were calculated using the formula: length (mm)×width (mm)^2[…]. For efficacy studies, mice were randomized based on tumor volumes and growth inhibition was assessed by comparison of the differences in tumor volume between control and treated groups. Dosing began when mean tumor size reached approximately 230 mm^3.

[2] = tested on: NCI-H929 tumor; test: In vivo combination efficacy in NCI-H929 human multiple myeloma subcutaneous tumor model; set-up: species or system C.B-17 SCID female mice; details: either agent alone (Example 2 30 mg/kg every other week; bortezomib 1 mg/kg weekly), NCI-H929 tumor bearing mice
Description: Method: Example 2 was formulated in 30% 2-Hydroxypropyl-beta-cyclodextrin (HPBCD), pH 9 and dosed as intravenously (iv) in a volume of 5 ml/kg. 5×10^6 MOLP-8 tumor cells or 10^7 NCI-H929 tumor cells were injected subcutaneously in the right flank of C.B-17 SCID female mice in a volume of 0.1 mL. Tumor volumes (measured by caliper) were calculated using the formula: length (mm)×width (mm)^2[…]. For efficacy studies, mice were randomized based on tumor volumes and growth inhibition was assessed by comparison of the differences in tumor volume between control and treated groups. Dosing began when mean tumor size reached approximately 160 mm^3 for MOLP-8 and approximately 230 mm^3 for NCI-H929.

Compound | mice remaining tumor free ([1]; once weekly iv 30 mg/kg, 16 days after initiation of therapy) | mice remaining tumor free ([1]; single iv dose of 100 mg/kg, 16 days after therapy) | anti-tumor activity, agent alone [2]
Cc1c2c(nn1C)CSCc1cc(n(C)n1)CSc1cc(c3ccccc3c1)OCCCc1c(C(=O)O)n(C)c3c-2c(Cl)ccc13 (atropisomer, axis not shown; (Ra)) [Example 2, (Ra)-(+)-17-chloro-5,13,14,22-tetramethyl-28-oxa-2,9-dithia-5,6,12,13,22-pentaazaheptacyclo[27.7.1.1^4,7.0^11,15.0^16,21.0^20,24.0^30,35]octatriaconta-1(37),4(38),6,11,14,16,18,20,23,29,31,33,35-tridecaene-23-carboxylic acid] | 1 of 6 | 4 of the 6 | no significant anti-tumor activity
CC(C)C[C@H](NC(=O)[C@H](Cc1ccccc1)NC(=O)c1cnccn1)B(O)O [bortezomib, reference compound] |  |  | no significant anti-tumor activity
